Data from PMC10001950 (International Journal of Molecular Sciences, 2023).

Assays:
BoNT/A LC [1] = molecular target: T1, BoNT/A LC (Clostridium botulinum, UniProt P0DPI0); assay: biochemical; format: biochemical
BoNT/A LC [2] = molecular target: T1, BoNT/A LC; assay: biochemical

T1 sequence (P0DPI0 2-448 limits assumed): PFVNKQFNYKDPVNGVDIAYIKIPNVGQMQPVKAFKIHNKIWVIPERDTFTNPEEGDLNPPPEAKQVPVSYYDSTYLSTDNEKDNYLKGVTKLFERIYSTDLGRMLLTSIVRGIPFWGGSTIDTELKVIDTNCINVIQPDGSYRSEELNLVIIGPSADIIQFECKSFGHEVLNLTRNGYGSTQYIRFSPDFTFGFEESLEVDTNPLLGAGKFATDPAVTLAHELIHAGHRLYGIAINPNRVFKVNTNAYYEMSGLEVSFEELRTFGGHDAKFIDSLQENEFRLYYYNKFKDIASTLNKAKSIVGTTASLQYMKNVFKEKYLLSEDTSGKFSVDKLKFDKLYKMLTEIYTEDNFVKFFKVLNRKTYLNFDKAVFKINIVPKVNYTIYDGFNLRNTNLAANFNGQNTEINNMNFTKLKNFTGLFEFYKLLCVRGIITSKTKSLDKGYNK

Row | Compound | IC50 (BoNT/A LC [1]) [nM] | also measured
1 | 2-(((4-Chlorobenzyl)amino)methyl)-4H-pyrido [1,2-a]pyrimidin-4-one [Compound 10] |  | inhibitory activity against BoNT/A LC (in words) (BoNT/A LC [1]): complete ablation of inhibitory activity
2 | O=C(O)[C@@H]1CN(Cc2cc(=O)n3cccc(O)c3n2)C[C@H]1c1ccccn1 [Compound 3] | 1300 ± 200 | fold more potent than initial lead 1 (BoNT/A LC [1]): approximately seven-fold
3 | CC(O)c1cc2n(n1)CCN(Cc1cc(=O)n3cccc(O)c3n1)C2 (stereo not shown) [Compound 4] | 7000 ± 1000 | 
4 | CCc1cc(=O)n2cccc(O)c2n1 [Compound 6, 2-Ethyl-9-hydroxy-4H-pyrido [1,2-a]pyrimidin-4-one] |  | inhibitory activity against BoNT/A LC (in words) (BoNT/A LC [1]): a decrease in inhibitory potency
5 | O=c1cc(CCCc2ccccc2)nc2c(O)cccn12 [Compound 7, 9-Hydroxy-2-(3-phenylpropyl)-4H-pyrido [1,2-a]pyrimidin-4-one] |  | inhibitory activity against BoNT/A LC (in words) (BoNT/A LC [1]): drastic decrease in inhibitory activity
6 | CCOc1cccn2c(=O)cc(CNCc3ccccc3)nc12 [Compound 11, 2-((Benzylamino)methyl)-9-ethoxy-4H-pyrido [1,2-a]pyrimidin-4-one] |  | inhibitory activity against BoNT/A LC (in words) (BoNT/A LC [1]): had a similar effect
7 | NCc1cc(=O)n2cccc(O)c2n1 [Compound 13, 2-(Aminomethyl)-9-hydroxy-4H-pyrido [1,2-a]pyrimidin-4-one] |  | inhibitory activity against BoNT/A LC (in words) (BoNT/A LC [1]): a decrease in inhibitory potency
8 | Oc1cccc2ccc(CNCc3ccccc3)nc12 [Compound 14, 2-((Benzylamino)methyl)quinolin-8-ol] |  | decrease in inhibition (BoNT/A LC [1]): 15 fold
9 | CN(C)Cc1cc(=O)n2cccc(O)c2n1 [Compound 15, 2-((Dimethylamino)methyl)-9-hydroxy-4H-pyrido [1,2-a]pyrimidin-4-one] | > 64000 | 
10 | O=c1cc(CNCc2cccc(F)c2)nc2c(O)cccn12 [Compound 16, 2-(((3-Fluorobenzyl)amino)methyl)-9-hydroxy-4H-pyrido [1,2-a]pyrimidin-4-one] | 600 ± 100 | 
11 | O=c1cc(CNCc2ccc(F)cc2)nc2c(O)cccn12 [Compound 17, 2-(((4-Fluorobenzyl)amino)methyl)-9-hydroxy-4H-pyrido [1,2-a]pyrimidin-4-one] | 1200 ± 200 | 
12 | O=c1cc(CNCc2ccc(Cl)cc2)nc2c(O)cccn12 [Compound 19, 2-(((4-Chlorobenzyl)amino)methyl)-9-hydroxy-4H-pyrido [1,2-a]pyrimidin-4-one] | 1100 ± 100 | 
13 | COc1cccc(CNCc2cc(=O)n3cccc(O)c3n2)c1 [Compound 20, 9-Hydroxy-2-(((3-methoxybenzyl)amino)methyl)-4H-pyrido [1,2-a]pyrimidin-4-one] | 490 ± 90 | 
14 | COc1ccc(CNCc2cc(=O)n3cccc(O)c3n2)cc1 [Compound 21, 9-Hydroxy-2-(((4-methoxybenzyl)amino)methyl)-4H-pyrido [1,2-a]pyrimidin-4-one] | 1900 ± 200 | 
15 | Cc1cccc(CNCc2cc(=O)n3cccc(O)c3n2)c1 [Compound 22, 9-Hydroxy-2-(((3-methylbenzyl)amino)methyl)-4H-pyrido [1,2-a]pyrimidin-4-one] | 500 ± 100 | 
16 | Cc1ccc(CNCc2cc(=O)n3cccc(O)c3n2)cc1 [Compound 23, 9-Hydroxy-2-(((4-methylbenzyl)amino)methyl)-4H-pyrido [1,2-a]pyrimidin-4-one] | 1400 ± 900 | 
17 | COC(=O)c1cccc(CNCc2cc(=O)n3cccc(O)c3n2)c1 [Compound 24, Methyl 3-((((9-hydroxy-4-oxo-4H-pyrido [1,2-a]pyrimidin-2-yl)methyl)amino)methyl) benzoate] | 410 ± 80 | 
18 | COC(=O)c1ccc(CNCc2cc(=O)n3cccc(O)c3n2)cc1 [Compound 25, Methyl 4-((((9-hydroxy-4-oxo-4H-pyrido [1,2-a]pyrimidin-2-yl)methyl)amino)methyl) benzoate] | > 64000 | 
19 | O=c1cc(CNCc2cccc(-c3ccccc3)c2)nc2c(O)cccn12 [Compound 26, 2-((([1,1′-biphenyl]-3-ylmethyl)amino)methyl)-9-hydroxy-4H-pyrido [1,2-a]pyrimidin-4-one] | 600 ± 100 | 
20 | CN(Cc1ccc(-c2ccccc2)cc1)Cc1cc(=O)n2cccc(O)c2n1 [Compound 28, 2-((([1,1′-biphenyl]-4-ylmethyl)(methyl)amino)methyl)-9-hydroxy-4H-pyrido [1,2-a]pyrimidin-4-one] | 12000 ± 200 | 
21 | O=c1cc(CNCCc2ccccc2)nc2c(O)cccn12 [Compound 29, 9-Hydroxy-2-((phenethylamino)methyl)-4H-pyrido [1,2-a]pyrimidin-4-one] | 10000 ± 1000 | 
22 | O=c1cc(COCc2ccccc2)nc2c(O)cccn12 [Compound 30, 2-((Benzyloxy)methyl)-9-hydroxy-4H-pyrido [1,2-a]pyrimidin-4-one] | 2500 ± 300 | 
23 | O=c1cc(COCc2ccccc2F)nc2c(O)cccn12 [Compound 31, 2-(((2-Fluorobenzyl)oxy)methyl)-9-hydroxy-4H-pyrido [1,2-a]pyrimidin-4-one] | 18000 ± 2000 | 

Row | Compound | IC50 (BoNT/A LC [1]) [nM] | also measured
24 | O=c1cc(COCc2ccc(F)cc2)nc2c(O)cccn12 [Compound 33, 2-(((4-Fluorobenzyl)oxy)methyl)-9-hydroxy-4H-pyrido [1,2-a]pyrimidin-4-one] | 15000 ± 1000 | 
25 | O=c1cc(COCc2ccccc2Cl)nc2c(O)cccn12 [Compound 34, 2-(((2-Chlorobenzyl)oxy)methyl)-9-hydroxy-4H-pyrido [1,2-a]pyrimidin-4-one] | 9000 ± 2000 | 
26 | O=c1cc(COCc2ccc(Cl)cc2)nc2c(O)cccn12 [Compound 36, 2-(((4-Chlorobenzyl)oxy)methyl)-9-hydroxy-4H-pyrido [1,2-a]pyrimidin-4-one] | 4130 ± 90 | 
27 | O=c1cc(COCc2cccc(O)c2)nc2c(O)cccn12 [Compound 37, 9-Hydroxy-2-(((3-hydroxybenzyl)oxy)methyl)-4H-pyrido [1,2-a]pyrimidin-4-one] | 26000 ± 2000 | 
28 | Cc1cccc(COCc2cc(=O)n3cccc(O)c3n2)c1 [Compound 38, 9-Hydroxy-2-(((3-methylbenzyl)oxy)methyl)-4H-pyrido [1,2-a]pyrimidin-4-one] | 6600 ± 500 | 
29 | Cc1ccc(COCc2cc(=O)n3cccc(O)c3n2)cc1 [Compound 39, 9-Hydroxy-2-(((4-methylbenzyl)oxy)methyl)-4H-pyrido [1,2-a]pyrimidin-4-one] | 9100 ± 500 | 
30 | O=c1cc(COCc2cccc([N+](=O)[O-])c2)nc2c(O)cccn12 [Compound 40, 9-Hydroxy-2-(((3-nitrobenzyl)oxy)methyl)-4H-pyrido [1,2-a]pyrimidin-4-one] | 9700 ± 800 | 
31 | COc1cc(COCc2cc(=O)n3cccc(O)c3n2)cc(OC)c1 [Compound 41, 2-(((3,5-Dimethoxybenzyl)oxy)methyl)-9-hydroxy-4H-pyrido [1,2-a]pyrimidin-4-one] | 5200 ± 200 | 
32 | O=c1cc(CN2Cc3ccccc3C2)nc2c(O)cccn12 [Compound 42, 9-Hydroxy-2-(isoindolin-2-ylmethyl)-4H-pyrido [1,2-a]pyrimidin-4-one] | 1200 ± 100 | potency compared to 2 (in words) (BoNT/A LC [1]): equipotent
33 | O=c1cc(CN2Cc3ccc(Cl)cc3C2)nc2c(O)cccn12 [Compound 43, 2-((5-Chloroisoindolin-2-yl)methyl)-9-hydroxy-4H-pyrido [1,2-a]pyrimidin-4-one] | 500 ± 200 | 
34 | O=c1cc(CN2Cc3ccc(Br)cc3C2)nc2c(O)cccn12 [Compound 44, 2-((5-Bromoisoindolin-2-yl)methyl)-9-hydroxy-4H-pyrido [1,2-a]pyrimidin-4-one] | 400 ± 20 | 
35 | O=c1cc(CN2Cc3ccc(-c4ccccc4)cc3C2)nc2c(O)cccn12 [Compound 45, 9-Hydroxy-2-((5-phenylisoindolin-2-yl)methyl)-4H-pyrido [1,2-a]pyrimidin-4-one] | 700 ± 100 | 
36 | O=c1cc(CN2CCc3ccccc32)nc2c(O)cccn12 [Compound 46, 9-Hydroxy-2-(indolin-1-ylmethyl)-4H-pyrido [1,2-a]pyrimidin-4-one] | 2900 ± 100 | 
37 | O=c1cc(CN2CCc3cc(Br)ccc32)nc2c(O)cccn12 [Compound 48, 2-((5-Bromoindolin-1-yl)methyl)-9-hydroxy-4H-pyrido [1,2-a]pyrimidin-4-one] | 700 ± 100 | 
38 | O=c1cc(CN2CCc3ccc(Br)cc32)nc2c(O)cccn12 [Compound 49, 2-((6-Bromoindolin-1-yl)methyl)-9-hydroxy-4H-pyrido [1,2-a]pyrimidin-4-one] | 700 ± 50 | 
39 | Cc1cccc2c1N(Cc1cc(=O)n3cccc(O)c3n1)CC2 [Compound 50, 9-Hydroxy-2-((7-methylindolin-1-yl)methyl)-4H-pyrido [1,2-a]pyrimidin-4-one] | 24000 ± 14000 | 
40 | COc1ccc2c(c1)N(Cc1cc(=O)n3cccc(O)c3n1)CC2 [Compound 51, 9-Hydroxy-2-((6-methoxyindolin-1-yl)methyl)-4H-pyrido [1,2-a]pyrimidin-4-one] | > 64000 | 
41 | COC(=O)c1ccc2c(c1)CCN2Cc1cc(=O)n2cccc(O)c2n1 [Compound 52, Methyl1-((9-hydroxy-4-oxo-4H-pyrido [1,2-a]pyrimidin-2-yl)methyl)indoline-5-carboxylate] | 1200 ± 700 | 
42 | COC(=O)c1ccc2c(c1)N(Cc1cc(=O)n3cccc(O)c3n1)CC2 [Compound 53, Methyl-1-((9-hydroxy-4-oxo-4H-pyrido [1,2-a]pyrimidin-2-yl)methyl)indoline-6-carboxylate] | 1100 ± 100 | 
43 | O=c1cc(CN2CCc3cc(-c4ccccc4)ccc32)nc2c(O)cccn12 [Compound 55, 9-Hydroxy-2-((5-phenylindolin-1-yl)methyl)-4H-pyrido [1,2-a]pyrimidin-4-one] | 900 ± 300 | 
44 | O=c1cc(CN2CCc3ccc(-c4ccccc4)cc32)nc2c(O)cccn12 [Compound 56, 9-Hydroxy-2-((6-phenylindolin-1-yl)methyl)-4H-pyrido [1,2-a]pyrimidin-4-one] | 600 ± 100 | 
45 | CS(=O)(=O)SCCCCCCc1ccn2c(=O)cc(CNCc3ccc(-c4ccccc4)cc3)nc2c1O [Compound 83, S-(6-(2-((([1,1′-biphenyl]-4-ylmethyl)amino)methyl)-9-hydroxy-4-oxo-4H-pyrido [1,2-a]pyrimidin-8-yl)hexyl) methanesulfonothioate] |  | Ki (BoNT/A LC [2]): 3.4 ± 0.5 µM; kinact (BoNT/A LC [2]): 0.0028 ± 0.0002 s⁻¹; kinact/KI (BoNT/A LC [2]): 820 ± 30 M⁻¹ s⁻¹
46 | CS(=O)(=O)SCCCCCCCc1ccn2c(=O)cc(CNCc3ccc(-c4ccccc4)cc3)nc2c1O [Compound 84] |  | Ki (BoNT/A LC [2]): 32 ± 6 µM; kinact (BoNT/A LC [2]): 0.0038 ± 0.0008 s⁻¹; kinact/KI (BoNT/A LC [2]): 120 ± 30 M⁻¹ s⁻¹
